Experimental data published in US5155103A, “Methods of using new thieno-triazole-1,4-diazepino-2-carboxylic acid amides” (Boehringer Ingelheim GmbH, priority 1985, dated 1992).

What follows are compounds tested on human thrombocytes (PAF-induced aggregation) (assay: inhibition of PAF-induced aggregation of human thrombocytes in vitro). Conditions: Homo sapiens, unit inferred; read-out: IC50.
Type: cell-based
Procedure: In order to determine the PAF-antagonistic effect of substances the PAF-induced aggregation of human thrombocytes in vitro is used. To obtain thrombocyte-rich plasma (TRP), blood is taken from an uncongested vein using a plastic syringe containing 3.8% sodium citrate solution. The ratio of sodium citrate solution to blood is 1:9. After careful mixing, the citrated blood is centrifuged for 20 minutes (150×g, 1200 rpm). The thrombocyte aggregation is measured using the method developed by Born and Cross (G. V. R. Born and M. J. Cross, J. Physiol. 168, 178 (1963)), PAF being added to the TRP with constant stirring to initiate aggregation.
The test substance is added 2 to 3 minutes before the aggregation is induced in a volume of 10 μl. The solvent used is either distilled water, ethanol and/or dimethylsulfoxide. Control mixtures are given corresponding volumes of these solvents. After the initial absorption has been recorded (2 to 3 minutes) aggregation is induced with PAF (5×10^-8 M).
To assess the effects of substances, the maximum of the first aggregation wave is used. The maximum absorption rate induced by PAF (=maximum aggregation×100%) is tested simultaneously in a parallel mixture (=control mixture in one of the channels of the 2-channel aggregometer) with each test mixture (second channel) and used as the 100% value.
The aggregation value achieved under the influence of the test substance is given as 100%.
Each test substance is investigated at concentrations of 10^-3 to 10^-8 M with a random test scope of n=4 for any inhibiting effect on the PAF-induced thrombocyte aggregation. Then a concentration-activity curve is drawn up using 3 concentrations and the IC50 is determined (concentration at 50% inhibition of aggregation).

Structure (SMILES)	IC50
Cc1nnc2n1-c1sc(CCC(=O)N3CCOCC3)cc1C(c1ccccc1Cl)=NC2 [Example 1, 2-[4-(2-Chlorophenyl)-9-methyl-6H-thieno[3,2-f][1,2,4]-triazolo[4,3-a][1,4]diazepin-2-yl]-ethane-1-carboxylic acid morpholide]	170 nM
CCN(CC)C(=O)CCc1cc2c(s1)-n1c(C)nnc1CN=C2c1ccccc1Cl [Example 5, 2-[4-(2-Chlorophenyl)-9-methyl-6H-thieno[3,2-f][1,2,4]-triazolo[4,3-a][1,4]diazepin-2-yl]-ethane-1-carboxylic acid diethylamide]	700 nM

Same assay, conditions: Table B; PAF 5×10^-8 M; human thrombocyte-rich plasma; read-out: PAF-Antag. IC50

Structure (SMILES)	IC50
Cc1nnc2n1-c1sc(Br)cc1C(c1ccccc1Cl)=NC2 [Brotizolam, reference compound]	500 nM
CCc1cc2c(s1)-n1c(C)nnc1CN=C2c1ccccc1Cl [Etizolam, reference compound]	500 nM
Cc1nnc2n1-c1sc(CCC(=O)N3CCOCC3)cc1C(c1ccccc1Cl)=NC2 [Example 1, 2-[4-(2-Chlorophenyl)-9-methyl-6H-thieno[3,2-f][1,2,4]-triazolo[4,3-a][1,4]diazepin-2-yl]-ethane-1-carboxylic acid morpholide]	170 nM
O=C(CCc1cc2c(s1)-n1c(nnc1C1CC1)CN=C2c1ccccc1Cl)N1CCOCC1 [Example 2]	330 nM
Cc1nnc2n1-c1sc(C(=O)N3CCOCC3)cc1C(c1ccccc1Cl)=NC2 [Example 3, [4-(2-Chlorophenyl)-9-methyl-6H-thieno[3,2-f][1,2,4]triazolo-[4,3-a][1,4]diazepin-2-yl]-carboxylic acid morpholide]	710 nM
Cc1nnc2n1-c1sc(C(N)=O)cc1C(c1ccccc1Cl)=NC2 [Example 4, [4-(2-Chlorophenyl)-9-methyl-6H-thieno[3,2-f][1,2,4]triazolo-[4,3-a][1,4]diazepin-2-yl]-carboxylic acid amide]	8300 nM
CCN(CC)C(=O)CCc1cc2c(s1)-n1c(C)nnc1CN=C2c1ccccc1Cl [Example 5, 2-[4-(2-Chlorophenyl)-9-methyl-6H-thieno[3,2-f][1,2,4]-triazolo[4,3-a][1,4]diazepin-2-yl]-ethane-1-carboxylic acid diethylamide]	720 nM
Cc1nnc2n1-c1sc(CC(=O)N3CCOCC3)cc1C(c1ccccc1Cl)=NC2 [Example 6, [4-(2-Chlorophenyl)-9-methyl-6H-thieno[3,2-f][1,2,4]triazolo-[4,3-a][1,4]-diazepin-2-yl]-methane carboxylic acid morpholide]	1300 nM
Cc1nnc2n1-c1sc(CCCC(=O)N3CCOCC3)cc1C(c1ccccc1Cl)=NC2 [Example 7, 3-[4-(2-Chlorophenyl)-9-methyl-6H-thieno[3,2-f][1,2,4]-triazolo-[4,3-a][1,4]-diazepin-2-yl]-propane-1-carboxylic acid morpholide]	850 nM
Cc1nnc2n1-c1sc(CCCCC(=O)N3CCOCC3)cc1C(c1ccccc1Cl)=NC2 [Example 8]	870 nM
O=C(CCc1cc2c(s1)-n1c(Br)nnc1CN=C2c1ccccc1Cl)N1CCOCC1 [Example 9]	470 nM
COc1nnc2n1-c1sc(CCC(=O)N3CCOCC3)cc1C(c1ccccc1Cl)=NC2 [Example 10, 2-[4(2-Chlorophenyl)-9-methoxy-6H-thieno[3,2-f][1,2,4]-triazolo-[4,3-a][1,4]-diazepin-2-yl]-ethane-1-carboxylic acid morpholide]	200 nM
CNC(=O)CCc1cc2c(s1)-n1c(C)nnc1CN=C2c1ccccc1Cl [Example 12, 2-[4-(2-Chlorophenyl)-9-methyl-6H-thieno[3,2-f][1,2,4]-triazolo[4,3-a][1,4]diazepin-2-yl]-ethane-1-carboxylic acid methylamide]	350 nM
Cc1nnc2n1-c1sc(CCC(=O)NC(C)C)cc1C(c1ccccc1Cl)=NC2 [Example 13, 2-[4-(2-Chlorophenyl)-9-methyl-6H-thieno[3,2-f][1,2,4]-triazolo[4,3-a][1,4]diazepin-2-yl]-ethane-1-carboxylic acid isopropylamide]	1540 nM
Cc1nnc2n1-c1sc(CCC(=O)N(C)C)cc1C(c1ccccc1Cl)=NC2 [Example 14, 2-[4-(2-Chlorophenyl)-9-methyl-6H-thieno[3,2-f][1,2,4]-triazolo[4,3-a][1,4]diazepin-2-yl]-ethane-1-carboxylic acid dimethylamide]	2200 nM
Cc1nnc2n1-c1sc(CCC(=O)N3CCCC3)cc1C(c1ccccc1Cl)=NC2 [Example 15, 2-[4-(2-Chlorophenyl)-9-methyl-6H-thieno[3,2-f][1,2,4]-triazolo[4,3-a][1,4]diazepin-2-yl]-ethane-1-carboxylic acid pyrrolidide]	380 nM
Cc1nnc2n1-c1sc(CCC(=O)N3CCCCC3)cc1C(c1ccccc1Cl)=NC2 [Example 16, 2-[4-(2-Chlorophenyl)-9-methyl-6H-thieno[3,2-f][1,2,4]-triazolo[4,3-a][1,4]diazepin-2-yl]-ethane-1-carboxylic acid piperidide]	1330 nM
Cc1nnc2n1-c1sc(CCC(=O)N3CCN(C)CC3)cc1C(c1ccccc1Cl)=NC2 [Example 17, 2-[4-(2-Chlorophenyl)-9-methyl-6H-thieno[3,2-f][1,2,4]-triazolo[4,3-a][1,4]diazepin-2-yl]-ethane-1-carboxylic acid N'-methyl-piperazide]	900 nM
CCN(CC)C(=O)CCc1cc2c(s1)-n1c(nnc1C1CC1)CN=C2c1ccccc1Cl [Example 18, 2-[4-(2-Chlorophenyl)-9-cyclopropyl-6H-thieno[3,2-f][1,2,4]triazolo[4,3-a][1,4]diazepin-2-yl]-ethane-1-carboxylic acid diethylamide]	800 nM
O=C(CCc1cc2c(s1)-n1cnnc1CN=C2c1ccccc1Cl)N1CCOCC1 [Example 19, 2-[4-(2-chlorophenyl)-6H-thieno[3,2-f][1,2,4]-triazolo[4,3-a][1,4]-diazepin-2-yl]-ethane-1-carboxylic acid morpholide]	8200 nM
Cc1nnc2n1-c1sc(CC(N)=O)cc1C(c1ccccc1Cl)=NC2 [Example 20]	5300 nM
Cc1nnc2n1-c1sc(CCC(=O)N(CCO)CCO)cc1C(c1ccccc1Cl)=NC2 [Example 21]	2900 nM
Cc1nnc2n1-c1sc(CCC(=O)N3CCOCC3)cc1C(c1ccccc1)=NC2 [Example 22, 2-[4-Phenyl-9-methyl-6H-thieno[3,2-f][1,2,4]triazolo-[4,3-a][1,4]diazepin-2-yl]-ethane-1-carboxylic acid morpholide]	540 nM
Cc1nnc2n1-c1sc(CCC(=O)NCCO)cc1C(c1ccccc1Cl)=NC2 [Example 23]	750 nM
O=C(CCc1cc2c(s1)-n1c(CCl)nnc1CN=C2c1ccccc1Cl)N1CCOCC1 [Example 24]	1400 nM
CCCOc1nnc2n1-c1sc(CCC(=O)N3CCOCC3)cc1C(c1ccccc1Cl)=NC2 [Example 26]	8100 nM
Cc1nnc2n1-c1ccc(Cl)cc1C(c1ccccc1Cl)=NC2 [Triazolam, reference compound]	1400 nM
